Measured values published in US11445724B2, “Insecticidal compounds” (SYNGENTA PARTICIPATIONS AG, priority 2013, dated 2022).

Key:
Type in all cases: in vivo
[1] = system: Diabrotica balteata (Corn root worm); assay: Diabrotica balteata (Corn root worm) larval mortality, artificial diet in 24-well MTP; conditions: 120 h, application rate 200 ppm (concentration in well 18 ppm), L2 larvae, larval mortality after 5 days
[2] = system: Myzus persicae (Green peach aphid); assay: Myzus persicae (Green peach aphid) mortality, sprayed sunflower leaf discs; conditions: foliar, 144 h, 200 ppm spray on sunflower leaf discs, mixed ages, mortality 6 DAT
[3] = system: Plutella xylostella (Diamond back moth); assay: Plutella xylostella (Diamond back moth) larval mortality, artificial diet in 24-well MTP; conditions: 144 h, application rate 200 ppm (concentration in well 18 ppm), L2 larvae, larval mortality after 6 days
[4] = system: Spodoptera littoralis (Egyptian cotton leafworm); assay: Spodoptera littoralis (Egyptian cotton leafworm) mortality, sprayed cotton leaf discs; conditions: foliar, 72 h, 200 ppm spray on cotton leaf discs, L1 larvae, mortality 3 DAT
[5] = system: Tetranychus urticae (Two-spotted spider mite); assay: Tetranychus urticae (Two-spotted spider mite) mortality, sprayed bean leaf discs; conditions: foliar, 192 h, 200 ppm spray on bean leaf discs, mixed ages, egg, larval and adult mortality after 8 days
[6] = system: Thrips tabaci (Onion thrips); assay: Thrips tabaci (Onion thrips) mortality, sprayed sunflower leaf discs; conditions: foliar, 168 h, 200 ppm spray on sunflower leaf discs, mixed ages, mortality after 7 days
[7] = system: Myzus persicae (Green peach aphid); assay: Myzus persicae (Green peach aphid) mortality, test compounds mixed with Sucrose solution under Parafilm; conditions: 120 h, 12.5 ppm in Sucrose solution, infested pea seedlings on Parafilm, mortality 5 days after infestation

COc1c(NC(=O)c2ccccc2C)cccc1C(=O)Nc1c(Br)cc(C(F)(C(F)(F)F)C(F)(F)F)cc1OC(F)F [Compound 35]
≥ 80%: pest or weed control at 200 ppm [1] | pest or weed control at 200 ppm [2] | pest or weed control at 200 ppm [3] | pest or weed control at 200 ppm [4] | pest or weed control at 200 ppm [5] | pest or weed control at 200 ppm [6]

COc1c(NC(=O)c2ccccc2Cl)cccc1C(=O)Nc1c(Br)cc(C(F)(C(F)(F)F)C(F)(F)F)cc1OC(F)F [Compound 37]
≥ 80%: pest or weed control at 200 ppm [1] | pest or weed control at 200 ppm [2] | pest or weed control at 200 ppm [3] | pest or weed control at 200 ppm [4] | pest or weed control at 200 ppm [5] | pest or weed control at 200 ppm [6]

COc1c(NC(=O)c2ccc(F)cc2C)cccc1C(=O)Nc1c(Br)cc(C(F)(C(F)(F)F)C(F)(F)F)cc1OC(F)F [Compound 43]
≥ 80%: pest or weed control at 200 ppm [1] | pest or weed control at 200 ppm [2] | pest or weed control at 200 ppm [3] | pest or weed control at 200 ppm [4] | pest or weed control at 200 ppm [5] | pest or weed control at 200 ppm [6]

Cc1ccccc1C(=O)Nc1cccc(C(=O)Nc2c(Cl)cc(C(F)(C(F)(F)F)C(F)(F)F)cc2OC(F)F)c1F [Compound 46]
≥ 80%: pest or weed control at 200 ppm [1] | pest or weed control at 200 ppm [3] | pest or weed control at 200 ppm [4] | pest or weed control at 200 ppm [5] | pest or weed control at 200 ppm [6]

O=C(Nc1cccc(C(=O)Nc2c(Cl)cc(C(F)(C(F)(F)F)C(F)(F)F)cc2OC(F)F)c1F)c1ccccc1Cl [Compound 48]
≥ 80%: pest or weed control at 200 ppm [1] | pest or weed control at 200 ppm [2] | pest or weed control at 200 ppm [3] | pest or weed control at 200 ppm [4] | pest or weed control at 200 ppm [5] | pest or weed control at 200 ppm [6]

COc1c(NC(=O)c2ccc(F)cc2F)cccc1C(=O)Nc1c(Br)cc(C(F)(C(F)(F)F)C(F)(F)F)cc1OC(F)F [Compound 71]
≥ 80%: pest or weed control at 200 ppm [1] | pest or weed control at 200 ppm [2] | pest or weed control at 200 ppm [3] | pest or weed control at 200 ppm [4] | pest or weed control at 200 ppm [5] | pest or weed control at 200 ppm [6]

COc1c(NC(=O)c2ccccc2C)cccc1C(=O)Nc1c(Cl)cc(C(F)(C(F)(F)F)C(F)(F)F)cc1OC(F)F [Compound 77]
≥ 80%: pest or weed control at 200 ppm [1] | pest or weed control at 200 ppm [3] | pest or weed control at 200 ppm [4] | pest or weed control at 200 ppm [5] | pest or weed control at 200 ppm [6]

COc1c(NC(=O)c2ccccc2Cl)cccc1C(=O)Nc1c(Cl)cc(C(F)(C(F)(F)F)C(F)(F)F)cc1OC(F)F [Compound 79]
≥ 80%: pest or weed control at 200 ppm [1] | pest or weed control at 200 ppm [2] | pest or weed control at 200 ppm [3] | pest or weed control at 200 ppm [4] | pest or weed control at 200 ppm [5] | pest or weed control at 200 ppm [6]

COc1c(NC(=O)c2ccc(OC(F)(F)F)cc2)cccc1C(=O)Nc1c(Cl)cc(C(F)(C(F)(F)F)C(F)(F)F)cc1OC(F)F [Compound 87]
≥ 80%: pest or weed control at 200 ppm [1] | pest or weed control at 200 ppm [3] | pest or weed control at 200 ppm [4] | pest or weed control at 200 ppm [5] | pest or weed control at 200 ppm [6]

COc1c(NC(=O)c2ccccc2)cccc1C(=O)Nc1c(Cl)cc(C(F)(C(F)(F)F)C(F)(F)F)cc1OC(F)F [Compound 92]
≥ 80%: pest or weed control at 200 ppm [1] | pest or weed control at 200 ppm [2] | pest or weed control at 200 ppm [3] | pest or weed control at 200 ppm [4] | pest or weed control at 200 ppm [5] | pest or weed control at 200 ppm [6]

COc1c(NC(=O)c2ccccc2C(F)(F)F)cccc1C(=O)Nc1c(Cl)cc(C(F)(C(F)(F)F)C(F)(F)F)cc1OC(F)F [Compound 94]
≥ 80%: pest or weed control at 200 ppm [1] | pest or weed control at 200 ppm [2] | pest or weed control at 200 ppm [3] | pest or weed control at 200 ppm [4] | pest or weed control at 200 ppm [5] | pest or weed control at 200 ppm [6]

COc1c(NC(=O)c2ccc(F)cc2Cl)cccc1C(=O)Nc1c(Cl)cc(C(F)(C(F)(F)F)C(F)(F)F)cc1OC(F)F [Compound 95]
≥ 80%: pest or weed control at 200 ppm [1] | pest or weed control at 200 ppm [2] | pest or weed control at 200 ppm [3] | pest or weed control at 200 ppm [4] | pest or weed control at 200 ppm [5] | pest or weed control at 200 ppm [6]

COc1c(NC(=O)c2ccc(F)cc2F)cccc1C(=O)Nc1c(Cl)cc(C(F)(C(F)(F)F)C(F)(F)F)cc1OC(F)F [Compound 97]
≥ 80%: pest or weed control at 200 ppm [2] | pest or weed control at 200 ppm [3] | pest or weed control at 200 ppm [4] | pest or weed control at 200 ppm [5] | pest or weed control at 200 ppm [6]

CCN(C(=O)c1cccc(F)c1F)c1cccc(C(=O)Nc2c(Cl)cc(C(F)(C(F)(F)F)C(F)(F)F)cc2OC(F)F)c1F [Compound 123]
≥ 80%: pest or weed control at 200 ppm [1] | pest or weed control at 200 ppm [2] | pest or weed control at 12.5 ppm [7] | pest or weed control at 200 ppm [3] | pest or weed control at 200 ppm [4] | pest or weed control at 200 ppm [6]

CCN(C(=O)c1ccccc1F)c1cccc(C(=O)Nc2c(Br)cc(C(F)(C(F)(F)F)C(F)(F)F)cc2OC(F)F)c1F [Compound 125]
≥ 80%: pest or weed control at 200 ppm [1] | pest or weed control at 200 ppm [2] | pest or weed control at 12.5 ppm [7] | pest or weed control at 200 ppm [3] | pest or weed control at 200 ppm [4] | pest or weed control at 200 ppm [6]

CCN(C(=O)c1ccccc1F)c1cccc(C(=O)Nc2c(Br)cc(C(F)(C(F)(F)F)C(F)(F)F)cc2OC(F)F)c1OC [Compound 129]
≥ 80%: pest or weed control at 200 ppm [1] | pest or weed control at 200 ppm [3] | pest or weed control at 200 ppm [4] | pest or weed control at 200 ppm [5] | pest or weed control at 200 ppm [6]

CCN(C(=O)c1ccc(F)cc1C)c1cccc(C(=O)Nc2c(Br)cc(C(F)(C(F)(F)F)C(F)(F)F)cc2OC(F)F)c1OC [Compound 133]
≥ 80%: pest or weed control at 200 ppm [1] | pest or weed control at 200 ppm [3] | pest or weed control at 200 ppm [4] | pest or weed control at 200 ppm [5] | pest or weed control at 200 ppm [6]

CCN(C(=O)c1ccccc1)c1cccc(C(=O)Nc2c(Br)cc(C(F)(C(F)(F)F)C(F)(F)F)cc2OC(F)F)c1OC [Compound 138]
≥ 80%: pest or weed control at 200 ppm [1] | pest or weed control at 200 ppm [2] | pest or weed control at 12.5 ppm [7] | pest or weed control at 200 ppm [3] | pest or weed control at 200 ppm [4] | pest or weed control at 200 ppm [6]

CCN(C(=O)c1ccccc1OC)c1cccc(C(=O)Nc2c(Cl)cc(C(F)(C(F)(F)F)C(F)(F)F)cc2OC(F)F)c1OC [Compound 154]
≥ 80%: pest or weed control at 200 ppm [1] | pest or weed control at 200 ppm [3] | pest or weed control at 200 ppm [4] | pest or weed control at 200 ppm [5] | pest or weed control at 200 ppm [6]

CCN(C(=O)c1ccccc1)c1cccc(C(=O)Nc2c(Cl)cc(C(F)(C(F)(F)F)C(F)(F)F)cc2OC(F)F)c1OC [Compound 155]
≥ 80%: pest or weed control at 200 ppm [1] | pest or weed control at 200 ppm [2] | pest or weed control at 12.5 ppm [7] | pest or weed control at 200 ppm [3] | pest or weed control at 200 ppm [4] | pest or weed control at 200 ppm [6]

CCN(C(=O)c1cccc(F)c1F)c1cccc(C(=O)Nc2c(Cl)cc(C(F)(C(F)(F)F)C(F)(F)F)cc2OC(F)F)c1OC [Compound 159]
≥ 80%: pest or weed control at 200 ppm [1] | pest or weed control at 200 ppm [2] | pest or weed control at 12.5 ppm [7] | pest or weed control at 200 ppm [3] | pest or weed control at 200 ppm [4] | pest or weed control at 200 ppm [6]
